# Measured values as given in patent US10039284B2, “Pesticidal compositions” (priority 2006, dated 2018).
# Values joined by “and” are separate entries in the source; they are usually repeats but may differ in a detail not shown here. Identical values can stand only once.
# Experiments:
# [1] = tested on: Common Cutworm (Spodoptera litura); assay: whole plant or invertebrate; conditions: Compound No. 1 alone 0.02 ppm; 5th or 6th day
# Experimental: They were diluted to a predetermined concentration with water containing a spreader (Shin-Rinoh 0.040) and subjected to the test by themselves or as a mixed liquid.
# A leaf segment of cabbage was dipped for about 10 seconds in an insecticidal solution and dried in air. A wet filter paper was laid in a petri dish having a diameter of 9 cm, and the dried leaf segment of cabbage was placed thereon. 10 Second-instar larvae of common cutworm were released therein and after putting a cover, left in a constant temperature chamber at 25° C. with lightening. On the 5th or 6th day after release, dead larvae were counted, and the mortality was calculated by the following equation. Here, the insects that were moribund were counted as dead insects. Mortality (%)={(number of dead insects)/(number of surviving insects+number of dead insects)}×100
# Further, the theoretical mortality (%) can be calculated from the colby's formula.
# [2] = tested on: Green Peach Aphid (Myzus persicae); assay: Test on Controlling Effects Against Green Peach Aphid (radish leaf dip); format: in vivo; conditions: third day after the dipping
# Experimental: Japanese radish leaf (cut into about 2 cm×3 cm) was put in a test tube in which water was put, and Larvae of green peach aphid were released on the leaf. […] On the third day after the dipping, dead larvae were counted, and the mortality was calculated from the following equation. Aphids that dropped from leaf or were moribund were included in the number of dead. […] Mortality (%)=(number of dead insects/number of treated insects)×100
# [3] = tested on: Green Rice Leafhopper (Nephotettix cincticeps); assay: Test on Controlling Effects Against Green Rice Leafhopper (rice seedling dip); format: in vivo; conditions: Compound No. 1 alone 0.4 ppm; 5th or 6th day
# From the text: The root was wrapped with absorbent cotton wet with water, and the rice seedling was put in a test tube.
smiles,measurement,setting,value
"CC(NC(=O)c1cc(Cl)cc(Br)c1NC(=O)c1cc(Br)nn1-c1ncccc1Cl)C1CC1 (stereo not drawn) [Compound No. 1, N-[2-bromo-4-chloro-6-[[α-methyl-(cyclopropylmethyl)amino]carbonyl]-phenyl]-3-bromo-1-(3-chloro-2-pyridyl)-1H-pyrazole-5-carboxamide]",Mortality (%),[1],100% and 90% and 70% and 60% and 50%
same,Mortality (%),[2]; Compound No. 1 alone 0.8 ppm,8% and 11%
same,Mortality (%),[2]; Compound No. 1 alone 1.5 ppm,46% and 28%
same,Mortality (%),[3],30% and 50%
